Laboratory results published in patent US20260364080A1, “PYRAZOLO-PYRIMIDINONE COMPOUNDS FOR USE IN METHODS OF INHIBITING WEE1 A KINASE” (Acrivon Therapeutics, Inc., priority 2023, published 2026).

What was measured:
[1] = target: T1, recombinant human Wee1A kinase (Homo sapiens, UniProt P30291); experiment: Wee1A kinase binding assay (LanthaScreen Eu time-resolved FRET); conditions: 30 nM tracer 178, 5 nM Wee1A kinase, 2 nM Eu-labeled antibody; 60 minutes at room temperature; read-out: Wee1A kinase Binding IC50
T1 construct: full length Wee1 kinase was expressed by baculovirus in insect cells; purchased Invitrogen PV3817; host or cells: insect cells (baculovirus)
T1 sequence (P30291 whole entry): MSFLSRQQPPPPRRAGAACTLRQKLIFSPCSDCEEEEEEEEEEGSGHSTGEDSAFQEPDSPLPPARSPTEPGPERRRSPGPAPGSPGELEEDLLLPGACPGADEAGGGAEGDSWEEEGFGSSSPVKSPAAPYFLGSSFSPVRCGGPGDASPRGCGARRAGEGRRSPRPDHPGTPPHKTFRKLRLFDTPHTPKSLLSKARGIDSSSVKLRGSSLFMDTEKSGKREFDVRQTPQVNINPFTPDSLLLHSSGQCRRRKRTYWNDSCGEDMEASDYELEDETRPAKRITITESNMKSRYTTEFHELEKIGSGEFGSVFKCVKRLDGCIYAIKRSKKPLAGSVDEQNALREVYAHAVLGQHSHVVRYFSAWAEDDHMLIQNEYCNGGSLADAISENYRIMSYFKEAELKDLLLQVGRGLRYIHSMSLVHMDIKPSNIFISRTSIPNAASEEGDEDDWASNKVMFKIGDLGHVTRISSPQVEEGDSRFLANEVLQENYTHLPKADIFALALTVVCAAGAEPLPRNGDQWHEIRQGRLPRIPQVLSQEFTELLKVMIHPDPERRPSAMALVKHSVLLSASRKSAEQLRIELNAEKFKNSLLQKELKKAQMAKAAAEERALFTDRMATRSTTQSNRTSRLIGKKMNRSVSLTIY
In short: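 Full-length, baculovirus-expressed GST-tagged Wee1A (5 nM) was mixed with 2 nM Eu-anti-GST antibody, 30 nM kinase tracer 178 and compound (1% DMSO). Buffer was 50 mM HEPES pH 7.5, 10 mM MgCl2, 1 mM EGTA, 0.01% Brij-35, incubated 60 min at room temperature. TR-FRET 665/615 nm emission ratios from duplicates were curve-fitted.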

[2] = target: T2, Myt1 kinase (recombinant PMYT-1) (Homo sapiens, UniProt Q99640); experiment: Myt1 kinase binding assay (LanthaScreen Eu Kinase Binding Assay); conditions: 3 nM tracer 178, 2.5 nM PMYT-1, 1 nM Eu-labeled antibody; read-out: Myt1 kinase Binding IC50
T2 construct: full length PMYT-1 was expressed by baculovirus in insect cells; purchased Invitrogen A30984; host or cells: insect cells (baculovirus)
T2 sequence (Q99640 1-499): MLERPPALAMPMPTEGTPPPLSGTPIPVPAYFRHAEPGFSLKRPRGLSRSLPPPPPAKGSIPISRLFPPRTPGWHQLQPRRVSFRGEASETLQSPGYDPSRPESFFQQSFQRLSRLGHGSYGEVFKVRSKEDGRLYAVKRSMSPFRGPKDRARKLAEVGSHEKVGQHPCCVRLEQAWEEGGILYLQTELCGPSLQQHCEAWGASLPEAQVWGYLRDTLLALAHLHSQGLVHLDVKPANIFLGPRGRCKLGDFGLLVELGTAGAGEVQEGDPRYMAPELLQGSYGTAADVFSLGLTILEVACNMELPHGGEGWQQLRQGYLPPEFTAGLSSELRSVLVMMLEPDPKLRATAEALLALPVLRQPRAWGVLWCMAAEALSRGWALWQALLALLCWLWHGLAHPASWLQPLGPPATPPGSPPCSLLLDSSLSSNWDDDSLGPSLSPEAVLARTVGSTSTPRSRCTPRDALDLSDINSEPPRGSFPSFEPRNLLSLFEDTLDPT
In short: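 The binding affinity of compounds for Myt1 kinase was measured with a LanthaScreen Europium (Eu) Kinase Binding Assay, a time-resolved FRET format in which test compounds compete against a labeled kinase tracer, and the results were expressed as IC50 values describing compound binding to Myt1.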

[3] = target: T3, Myt1 kinase (CDK1 Thr14 phosphorylation in DAOY medulloblastoma cells) (Homo sapiens, UniProt Q99640); experiment: AlphaLISA assay, Myt1 kinase target engagement (phospho-CDK1 Thr14) in DAOY cells; format: cell-based; conditions: 4 h treatment, read-out: CDK1 Thr14 Phosphorylation EC50
T3 construct: pCDK1 Thr14 AlphaLISA read-out
T3 sequence (Q99640 1-499): T2 sequence (Q99640 1-499)
Procedure: Each of an ACHN renal cell carcinoma cell line (ATCC) and a DAOY medulloblastoma cell line, and an A427 lung cancer line were cultured in Minimum Essential Medium Eagle supplemented with 10% fetal calf serum (Sigma), 1% Penicillin-Streptomycin and 10 mM HEPES buffer (HyClone). Cell cultures were kept in a humidified incubator at 37 °C and 5% CO2. Cells were routinely tested for Mycoplasma contamination.
For target engagement assessment of Myt1 kinase inhibition, quantification of Cdk1 phosphorylated on threonine 14 was detected using the AlphaLISA® SureFire® Ultra™ Human Phospho-CDK1 (Thr14) assay (Perkin Elmer). DAOY or ACHN cells were seeded into tissue culture treated 96-well plates (VWR) to a density of 10,000 or 20,000 cells per well respectively. 24 h post seeding cells were treated for 4 h with compounds at concentrations ranging from 7 to 5000 nM. Cells were washed with PBS and lysed in 50 μl AlphaLISA lysis buffer before freezing at −80 C. Ten ul of the lysate was transferred to 384 well plates and incubated with AlphaLISA donor and acceptor beads according to the manufacturer's instructions. Dose response curves and EC50 values were calculated and visualized using GraphPad Prism version 9. Target engagement for Myt1 kinase can also be measured using the same AlphaLISA assay in OVCAR3 cells, an ovarian cancer cell line. NIH:OVCAR-3 (OVCAR3) cells are cultured in RPMI-1640 medium supplemented with 0.01 mg/ml insulin, 20% FBS, 1% Penicillin-Streptomycin and 10 mM HEPES buffer. 14,000 cells per well are seeded into 96 well tissue culture plates in full medium. Twenty-four hours post seeding, cells are treated with compound for 4 hours at concentrations ranging from 0.017 nM to 1000 nM.

[4] = target: T4, Wee1A kinase (CDK1 Tyr15 phosphorylation in ACHN renal cell carcinoma cells) (Homo sapiens, UniProt P30291); experiment: High-content imaging of pCdk1 Y15, Wee1A kinase target engagement in ACHN cells; format: cell-based; conditions: 4 h treatment, nuclear positivity for pCdk1 Y15 vs DMSO control, read-out: CDK1 Tyr15 Phosphorylation EC50
T4 construct: pCDK1 Tyr15 immunofluorescence read-out
T4 sequence (P30291 whole entry): as the sequence (P30291 whole entry) above
In short: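 ACHN cells exposed to compound for 4 h over 7–5,000 nM or 0.3–200 nM, then fixed and immunostained for pCDK1 Y15 with DAPI nuclear counterstain. The percentage of pCdk1 Y15 nucleus-positive cells relative to DMSO control was imaged per well; EC50 from dose-response curves.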

[5] = system: ACHN cells; experiment: Cell Titer Glo viability assay, ACHN cells; format: cell-based; conditions: Homo sapiens, 144 h, absolute EC50
In short: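 Cells grown in MEM with 10% FCS were seeded at 500 (A427), 400 (ACHN) or 250 (DAOY) per well and treated the next day with compound at 17 to 10 000 nM. Viability relative to untreated control was read at 144 h by CellTiter-Glo 2.0.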

Compound	IC50 [1] [nM]	IC50 [2] [nM]	EC50 [3] [nM]	EC50 [4] [nM]	EC50 [5] [nM]
C=CCn1c(=O)c2cnc(Nc3ccc(OCC(F)(F)F)cc3)nc2n1-c1ccnc(OC2CCN(C)CC2)n1 [Compound 253, 2-allyl-1-(2-((1-methylpiperidin-4-yl)oxy)pyrimidin-4-yl)-6-((4-(2,2,2-trifluoroethoxy)phenyl)amino)-1,2-dihydro-3H-pyrazolo[3,4-d]pyrimidin-3-one]	< 10	20 to 100	> 1000	< 100	≤ 100
C=CCn1c(=O)c2cnc(Nc3ccc4c(cnn4C)c3)nc2n1-c1cccc(OC2CCN(CC)CC2)n1 [Compound 321, 2-allyl-1-[6-(1-ethyl-4-piperidyloxy)-2-pyridyl]-6-(1-methyl-1H-indazol-5-ylamino)-1,2-dihydro-3H-1,2,5,7-tetraazainden-3-one]	< 10	20 to 100	500 to 1000	< 100	≤ 100
C=CCn1c(=O)c2cnc(Nc3ccc4c(c3)OCO4)nc2n1-c1cccc(NC2CCN(C)CC2)n1 [Compound 196, 2-allyl-6-(2H-1,3-benzodioxol-5-ylamino)-1-[6-(1-methyl-4-piperidylamino)-2-pyridyl]-1,2-dihydro-3H-1,2,5,7-tetraazainden-3-one]	< 10	100 to 500	> 1000	< 100	≤ 100
C=CCn1c(=O)c2cnc(Nc3ccc4c(c3)ncn4C)nc2n1-c1cccc(OC2CCNCC2)n1 [Compound 319, 2-allyl-6-((1-methyl-1H-benzo[d]imidazol-5-yl)amino)-1-(6-(piperidin-4-yloxy)pyridin-2-yl)-1,2-dihydro-3H-pyrazolo[3,4-d]pyrimidin-3-one]	< 10	20 to 100	> 1000	100 to 500	500 to 1000
C=CCn1c(=O)c2cnc(Nc3cccnc3)nc2n1-c1cccc(OC2CCN(C)CC2)n1 [Compound 229, 2-allyl-1-[6-(1-methyl-4-piperidyloxy)-2-pyridyl]-6-(3-pyridylamino)-1,2-dihydro-3H-1,2,5,7-tetraazainden-3-one]	< 10	20 to 100	> 1000	100 to 500	≤ 100
C=CCn1c(=O)c2cnc(Nc3ccc4cccnc4c3)nc2n1-c1cccc(OC2CCNCC2)n1 [Compound 243, 2-allyl-1-[6-(4-piperidyloxy)-2-pyridyl]-6-(7-quinolylamino)-1,2-dihydro-3H-1,2,5,7-tetraazainden-3-one]	< 10	< 20	500 to 1000	< 100	100 to 500
C=CCn1c(=O)c2cnc(Nc3ccc4nsnc4c3)nc2n1-c1cccc(OC2CCN(C)CC2)n1 [Compound 208, 2-allyl-6-(2,1,3-benzothiadiazol-5-ylamino)-1-[6-(1-methyl-4-piperidyloxy)-2-pyridyl]-1,2-dihydro-3H-1,2,5,7-tetraazainden-3-one]	< 10	< 20	200 to 500	< 100	≤ 100
C=CCn1c(=O)c2cnc(Nc3ccc(Cl)cc3)nc2n1-c1cccc(OC2CCNCC2)n1 [Compound 141, 2-allyl-6-((4-chlorophenyl)amino)-1-(6-(piperidin-4-yloxy)pyridin-2-yl)-1,2-dihydro-3H-pyrazolo[3,4-d]pyrimidin-3-one]	< 10	< 20	200 to 500	< 100	100 to 500
C=CCn1c(=O)c2cnc(Nc3ccc(N4CCS(=O)(=O)CC4)cc3)nc2n1-c1cccc(OC2CCN(C)CC2)n1 [Compound 369, 4-(p-{2-allyl-1-[6-(1-methyl-4-piperidyloxy)-2-pyridyl]-3-oxo-1,2-dihydro-3H-1,2,5,7-tetraazainden-6-ylamino}phenyl)-1λ^6,4-thiazinane-1,1-dione]	< 10	< 20	> 1000	< 100	
C=CCn1c(=O)c2cnc(Nc3cnn(C)c3)nc2n1-c1cccc(OC2CC3CCCC(C2)N3C)n1 (centres unmarked) [Compound 194, 2-allyl-1-{6-(9-methyl-9-azabicyclo[3.3.1]non-3-yloxy)-2-pyridyl}-6-(1-methyl-4-pyrazolylamino)-1,2-dihydro-3H-1,2,5,7-tetraazainden-3-one]	< 10	< 20	> 1000	100 to 500	
C=CCn1c(=O)c2cnc(Nc3ccc4cnoc4c3)nc2n1-c1cccc(OC2CCN(C)CC2)n1 [Compound 299, 2-allyl-6-(1,2-benzisoxazol-6-ylamino)-1-[6-(1-methyl-4-piperidyloxy)-2-pyridyl]-1,2-dihydro-3H-1,2,5,7-tetraazainden-3-one]	< 10	20 to 100	> 1000	500 to 1000	
C=CCn1c(=O)c2cnc(Nc3ccc(N4CCSCC4)cc3)nc2n1-c1cccc(OC2CCN(C)CC2)n1 [Compound 261, 2-allyl-1-[6-(1-methyl-4-piperidyloxy)-2-pyridyl]-6-[p-(1,4-thiazinan-4-yl)phenylamino]-1,2-dihydro-3H-1,2,5,7-tetraazainden-3-one]	< 10	< 20	200 to 500		≤ 100
C=CCn1c(=O)c2cnc(Nc3ccc4sncc4c3)nc2n1-c1cccc(OC2CCNCC2)n1 [Compound 228, 2-allyl-6-(1,2-benzisothiazol-5-ylamino)-1-[6-(4-piperidyloxy)-2-pyridyl]-1,2-dihydro-3H-1,2,5,7-tetraazainden-3-one]	< 10	< 20	> 1000	100 to 500	
C=CCn1c(=O)c2cnc(Nc3ccc4c(cnn4C(C)C)c3)nc2n1-c1cccc(OC2CCNCC2)n1 [Compound 265, 2-allyl-6-(1-isopropyl-1H-indazol-5-ylamino)-1-[6-(4-piperidyloxy)-2-pyridyl]-1,2-dihydro-3H-1,2,5,7-tetraazainden-3-one]	< 10	< 20	200 to 500	< 100	
C=CCn1c(=O)c2cnc(Nc3ccc4nccnc4c3)nc2n1-c1cccc(OC2CCN(C)CC2)n1 [Compound 241, 2-allyl-1-[6-(1-methyl-4-piperidyloxy)-2-pyridyl]-6-(6-quinoxalinylamino)-1,2-dihydro-3H-1,2,5,7-tetraazainden-3-one]	< 10	< 20	200 to 500		≤ 100
